{
  "source": "patent US11780815B2",
  "about": "“DNA2 inhibitors for cancer treatment” (City of Hope, priority 2016, dated 2023)",
  "key": {"[1]": {"system": "BRCA2- or BOD1L-depleted or mock transfected U2OS cells", "test": "P-RPA foci in fork protection defective cells after HU", "assay_type": "cell-based, human", "text": "Fork protection is a DNA break repair-independent pathway suppressing genomic instability (Schlacher et al, 2011; Schlacher et al, 2012). The fork protection pathway is mediated by BRCA2, BRCA1, RAD51, members of the Fanconi anemia pathway, and […]. In the absence of any of these factors, excessive nascent DNA degradation occurs at stalled replication forks. This degradation is prevented if the end-resection protein MRE11 is inhibited either by siRNA knockdown or by inhibition of MRE11 nuclease by the small molecule mirin (Schlacher et al., 2011; Schlacher et al., 2012). MRE11 functions upstream of DNA2 in resection of double-strand breaks, and DNA2, in addition to MRE11 has been implicated in over-resection at stalled replication forks in BOD1L and in RAD51 impaired cells, since over-resection is suppressed by knockdown of DNA2 in the absence of BOD1L or in a RAD51 mutant cell line (Higgs et al., 2015; Wang et al., 2015). […] . After treatment of the BRCA2- or BOD1L-depleted U2OS cells with HU, which stalls forks but is not expected to produce DSBs (Petermann et al., 2010; Schlacher et al., 2011; Schlacher et al., 2012), and which are fork protection defective, we observed a dramatic increase in P-RPA positive cells indicative of nascent DNA degradation upon treatment with HU (FIGS. 6C and FIG. 12B). […] . The potency of C5 was estimated by comparing the effect of mirin, the MRE11 inhibitor, in the same experiment. […] . Our results are in keeping with previous work showing that knockdown of DNA2 counteracts excessive nascent strand degradation in both BOD1L and in RAD51 impaired cells (Higgs et al., 2015; Wang et al., 2015). […] ."}, "[2]": {"system": "U2OS cells carrying the GFP reporter gene", "test": "DSB repair reporter assays (I-SceI/GFP, HDR and SSA)", "assay_type": "cell-based, human", "text": "To further validate C5 as a DNA2 inhibitor, we tested its effects on DNA2 functions known to be affected by knockdown or deletion of DNA2 in previous studies (Howard et al., 2015; Karanja et al., 2014; Karanja et al., 2012; Peng et al., 2012). We first determined the effect of C5 on two recombination pathways, SSA (single-strand annealing) and homologous recombination (HR), using I-SceI/GFP-based reporter assays. […] . HDR-GFP and SSA-GFP were integrated in U2OS cells (Gunn and Stark, 2012; Howard et al., 2015). […] . The cells were harvested and the GFP+ frequencies (repair frequencies) were determined by flow cytometry using a CyAn ADP Analyzer (Beckman Coulter, Inc.)."}, "[3]": {"system": "phosphorylated RPA2 and γH2AX in MCF7 and A549 cells", "test": "Phosphorylated RPA and γH2AX after CPT (western blot, immunofluorescence)"}, "FEN1": {"target": "FEN1 (Homo sapiens, UniProt P39748)", "sequence (P39748 whole entry, species assumed)": "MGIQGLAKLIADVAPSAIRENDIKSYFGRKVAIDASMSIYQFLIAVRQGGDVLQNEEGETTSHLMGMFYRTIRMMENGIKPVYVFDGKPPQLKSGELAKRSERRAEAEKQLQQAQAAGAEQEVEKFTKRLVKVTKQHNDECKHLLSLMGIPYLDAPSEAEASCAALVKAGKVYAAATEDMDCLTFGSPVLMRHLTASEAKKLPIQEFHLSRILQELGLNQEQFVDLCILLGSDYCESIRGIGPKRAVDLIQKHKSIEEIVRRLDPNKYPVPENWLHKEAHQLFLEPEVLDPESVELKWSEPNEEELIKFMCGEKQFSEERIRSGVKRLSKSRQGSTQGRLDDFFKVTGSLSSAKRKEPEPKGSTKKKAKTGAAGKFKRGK", "conditions": "Liu et al EBioMedicine 6 (2016) 73-86; cited from earlier work"}, "[4]": {"system": "mouse embryonic stem (MES) cells", "test": "Cell survival of WT and DNA2 knockout MES cells", "assay_type": "cell-based", "conditions": "1 μM C5 for 4 days"}, "[5]": {"system": "panel of 18 cell lines of 4 major types of cancers", "test": "Cell proliferation assay, panel of cancer cell lines"}, "[6]": {"system": "HCT116 DNA2 flox/+/+ cells", "test": "Synthetic lethality of C5 with FEN1, EXO1 or MRE11 siRNA knockdown", "assay_type": "cell-based, human", "method": "FIGS. 13A-13C. Synergy between C5 and FEN1. […] . On day 1, HCT116 DNA2^flox/+/+ and HCT116 DNA2^flox/−/− cells (3*10^6 were plated in 10 cm dishes, respectively. On day 2, the genetic knockout of DNA2 was induced with tamoxifen as previously described (Karanja et al., 2014). Control wells contained EtOH. On day 3, the tamoxifen floxed cells, now DNA2^−/+/+ and DNA2^−/−/−, and DNA2^flox/+/+ controls were plated on 24 well plates, 20,000 to 30,000 cells per well, and incubated overnight. On day 4, wells were transfected with 20 pmole control SCR siRNA or FEN1 (FIG. 13A), EXO1 (FIG. 13B), or MRE11 (FIG. 13C) si RNAs, respectively, as previously described using GeneMute. siRNAs were obtained from Invitrogen: FEN1 (HSS103627, HSS103629, HSS176903), MRE11 (HSS142960, HSS142961, HSS181171), EXO1 (HSS113557, HSS113558, HSS113559). Cells were incubated overnight. […] . Cells were cultured for an additional 3 days, until DNA2 ^flox/+/+ cells lacking C5 were confluent. As a control for the efficacy of C5, the effect of genetic knockdown of DNA2 was tested in the presence the respective siRNA treated DNA2^−/−/− (gray curves). Cells were then washed with PBS, trypsinized and stained with tryphan blue to differentiate live cells from dead cells. Cells were counted microscopically in a Neubauer chamber. Error bars represent data from duplicate experiments. […] .\nIn yeast, pathways mediated by DNA2 overlap with repair or replication by FEN1, EXO1, or MRE11 and not with others (Budd, M. E., Tong, A. H., Polaczek, P., Peng, X., Boone, C., and Campbell, J. L. (2005). A network of multi-tasking proteins at the DNA replication fork preserves genome stability. PLoS genetics 1, e61). Thus, mutants defective in FEN1, EXO1, or MRE11 are viable only in the presence of active DNA2. Double mutants deficient in DNA2 and FEN1, EXO1, or MRE11, respectively, are inviable, especially in the presence of DNA damage. This effect is called synthetic lethality. To test for synthetic lethality, deficiency in DNA2, can be induced either by genetic mutation or, if a specific inhibitor is available, by inhibition of DNA2. We reasoned that if DNA2 is the major cellular target of C5, then cells deficient in FEN1, EXO1, or MRE11 should be hypersensitive to C5, i.e. C5 should synergize with deficiency in any one of these three genes. We have now shown that this is the case in both yeast and in human cells (FIGS. 13A-13C, human cells and FIG. 14, yeast cells). […] . […] After floxing, i.e. induction of Cre nuclease with tamoxifen, this strain becomes a complete DNA2 knockout. […] ."}, "A549 cells": {"system": "A549 cells", "test": "DNA fiber assay, replication fork restart", "conditions": "for percentage of restarting forks: 20 μM C5"}, "MCF7 breast cancer cells": {"system": "MCF7 breast cancer cells", "test": "Clonogenic assay, combination with CPT or MK4827", "assay_type": "cell-based, human", "conditions": "for IC50: Homo sapiens, MCF7", "method": "The survival rate of the cells treated with various concentrations of CPT was calculated by normalizing the number of colonies to that of the cells without CPT treatment. The survival rate of the cells without CPT treatment was arbitrarily set as 1. […] The IC50 and combination index (CI) was calculated using the Compusyn program. FIG. 7B: Representative inhibition curve of varying concentrations of C5 from 0 to 10 μM in combination with MK4827 (0 or 1 μM).\nTo test our hypothesis that inhibition of DNA2 synergizes with other chemotherapeutic agents, we treated cells with CPT and C5."}, "FANCD2−/− fibroblasts": {"system": "FANCD2−/− fibroblasts", "test": "Cisplatin sensitivity of FANCD2−/− cells", "conditions": "125 nM cisplatin, 10 μM C5, compared to cells not treated with C5"}, "MCF7 cells": {"system": "MCF7 cells", "test": "Cell survival of control (shSCR) or DNA2 knockdown MCF7 cells", "assay_type": "cell-based, human", "conditions": "1 μM C5 for 4 days", "text": ". […] The live cells were counted."}, "[7]": {"system": "drug-sensitive yeast strains (rad27 mutants, wild-type)", "test": "Yeast dilution assay, survival after MMS or high temperature", "conditions": "rad27 mutants lacking FEN1, serial 10 fold dilutions"}},
  "note": "Like-named read-outs stand apart in the source and are kept apart here.",
  "data": [
    {"smiles": "O=C(O)c1cnc2c([N+](=O)[O-])cccc2c1O", "note": "[C5]", "values": [
      {"measurement": "nascent DNA degradation (P-RPA positive cells)", "setting": "[1]; BRCA2- or BOD1L-depleted U2OS cells, 4 mM HU 5 h, 20 μM C5", "value": "suppressed"},
      {"measurement": "potency in reducing nascent DNA degradation relative to mirin", "setting": "[1]; BRCA2- or BOD1L-depleted U2OS cells, HU, 20 μM C5", "value": "comparable potency to 50 μM mirin"},
      {"measurement": "reduction in P-RPA foci", "setting": "[1]; BRCA2-deficient cells, 4 mM HU 5 h", "value": "equivalent to that observed in a DNA2 knockdown"},
      {"measurement": "number of P-RPA positive cells", "setting": "[1]; mock-depleted cells, absence of HU", "value": "neither mirin nor C5 significantly decreased"},
      {"measurement": "HR (homologous recombination) frequency", "setting": "[2]; 0, 10, 20, 40, 60 μM C5, 72 h", "value": "reduced by C5 in a dose-dependent manner"},
      {"measurement": "SSA (single-strand annealing) frequency", "setting": "[2]; 0, 10, 20, 40, 60 μM C5, 72 h", "value": "reduced by C5 in a dose-dependent manner"},
      {"measurement": "HR frequency compared with siRNA DNA2 knockdown", "setting": "[2]; 60 μM C5", "value": "reduced to the same level as in an siRNA DNA2 knockdown"},
      {"measurement": "SSA frequency compared with siRNA DNA2 knockdown", "setting": "[2]; 60 μM C5", "value": "reduced to the same level as in an siRNA DNA2 knockdown"},
      {"measurement": "CPT-induced P-RPA level in γH2AX-positive cells", "setting": "[3]; 10 μM C5 for 24 hours, then 1 μM CPT for 4 hours", "value": "significantly reduced"},
      {"measurement": "γH2AX level", "setting": "[3]; C5 alone, 10 μM", "value": "background increase"},
      {"measurement": "inhibition of FEN1", "setting": "FEN1", "value": "not inhibited"},
      {"measurement": "effect on survival rate", "setting": "[4]", "value": "did not further reduce the survival rate"},
      {"measurement": "cytotoxicity to human cancer cells among the nuclease-inhibiting hits", "setting": "[5]", "value": "highest cytotoxicity"},
      {"measurement": "cell killing by increasing levels of C5", "setting": "[6]; scrambled siRNA", "value": "resistant"},
      {"measurement": "cell killing by increasing levels of C5", "setting": "[6]; siRNA knockdown of EXO1", "value": "killed by increasing levels of C5"},
      {"measurement": "cell killing by increasing levels of C5", "setting": "[6]; siRNA knockdown of FEN1", "value": "killed by increasing levels of C5"},
      {"measurement": "cell killing by increasing levels of C5", "setting": "[6]; siRNA knockdown of MRE11", "value": "killed by increasing levels of C5"},
      {"measurement": "percentage of restarting forks", "setting": "A549 cells; CPT-treated cells (150 nM CPT), 75% in absence of C5", "value": 50, "unit": "%"},
      {"measurement": "percentage of restarting forks", "setting": "A549 cells; HU-treated cells (2 mM HU), 80% in absence of C5", "value": 60, "unit": "%"},
      {"measurement": "replication fork restart", "setting": "A549 cells; high levels of CPT (2 μM), 10 μM C5", "value": "inhibited restart"},
      {"measurement": "combination with MK4827, survival of MCF7 cells", "setting": "MCF7 breast cancer cells; C5 0 to 10 μM, MK4827 0 to 1 μM", "value": "strong synergistic effect"},
      {"measurement": "combination with CPT, cellular lethality", "setting": "MCF7 breast cancer cells; C5 1 μM with different concentrations of CPT", "value": "synergistic"},
      {"measurement": "IC50", "setting": "MCF7 breast cancer cells", "value": 1900, "unit": "nM"},
      {"measurement": "combination index", "setting": "MCF7 breast cancer cells; MK4827 (1 μM) and C5 (2 μM), Compusyn", "value": 0.13},
      {"measurement": "survival of cisplatin-treated cells", "setting": "FANCD2−/− fibroblasts", "value": "increase in survival"},
      {"measurement": "effect on survival rate", "setting": "MCF7 cells; DNA2 knockdown human cancer cells", "value": "did not further reduce the survival rate"},
      {"measurement": "survival rate compared to the untreated WT control", "setting": "MCF7 cells; human cancer cells (printed MEF7)", "value": 60, "unit": "%"},
      {"measurement": "sensitisation of rad27 yeast to DNA damage", "setting": "[7]", "value": "synergizes with MMS and with deletion of rad27"}
    ]},
    {"smiles": "CCCCNC(=O)c1c[nH]c2c([N+](=O)[O-])cccc2c1=O", "note": "[C5-2]", "values": [
      {"measurement": "sensitisation of rad27 yeast to DNA damage", "setting": "[7]", "value": "more effective than C5"}
    ]},
    {"smiles": "NC(=O)c1cccc2cn(-c3ccc([C@@H]4CCCNC4)cc3)nc12", "note": "[MK4827, 2-{4-[(3S)-piperidin-3-yl]phenyl}-2H-indazole-7-carboxamide, reference compound]", "values": [
      {"measurement": "IC50", "setting": "MCF7 breast cancer cells; clonogenic assay, single agent, read-out: IC50", "value": 800, "unit": "nM"}
    ]}
  ]
}
